Results published in ChEMBL document CHEMBL4602733 (J Med Chem, 2020).
One block for each compound: values may come before it.

What was measured:
Histamine H3 receptor [1] = target: T1, Histamine H3 receptor (Homo sapiens, UniProt Q9Y5N1); parameters: species or system Sf9
Histamine H4 receptor [2] = target: T2, Histamine H4 receptor (Homo sapiens, UniProt Q9H3N8); parameters: species or system Sf9
Homo sapiens = species: Homo sapiens; parameters: reference not given here
Histamine H3 receptor [3] = target: T1, Histamine H3 receptor; parameters: species or system Sf9; remark: listed apart in the source
Histamine H4 receptor [4] = target: T2, Histamine H4 receptor; parameters: species or system Sf9; remark: listed apart in the source
Histamine H4 receptor [5] = target: T3, Histamine H4 receptor (Mus musculus, UniProt Q91ZY2); assay: Antagonist activity at mouse H4R expressed in HEK293 cells co-expressing ELucC/ELucN-beta-arrestin2 assessed as inhibition of histamine-induced beta-arrestin recruitment preincubated for 15 mins followed by histamine addition by luciferase reporter gene assay; type: cell-based
T3 sequence (Q91ZY2 whole entry): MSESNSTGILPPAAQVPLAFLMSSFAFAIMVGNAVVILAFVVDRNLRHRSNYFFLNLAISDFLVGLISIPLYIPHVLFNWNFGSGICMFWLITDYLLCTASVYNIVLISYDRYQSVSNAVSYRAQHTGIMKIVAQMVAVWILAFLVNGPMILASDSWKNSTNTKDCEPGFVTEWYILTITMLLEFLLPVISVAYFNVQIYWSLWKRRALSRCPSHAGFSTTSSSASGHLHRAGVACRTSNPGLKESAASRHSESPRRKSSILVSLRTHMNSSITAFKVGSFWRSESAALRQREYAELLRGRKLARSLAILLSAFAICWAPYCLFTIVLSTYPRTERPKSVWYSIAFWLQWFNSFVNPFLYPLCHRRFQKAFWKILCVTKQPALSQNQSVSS

Histamine H4 receptor [6] = target: T3, Histamine H4 receptor; assay: Displacement of UR-DEBa176 from mouse recombinant H4R expressed in HEK293T-SF-His6-CRE-Luc cells; type: cell-based
Histamine H4 receptor [7] = target: T3, Histamine H4 receptor; assay: Inhibition of UR-DEBa242 binding to mouse recombinant NLuc/GPCR-fused H4R expressed in HEK293T cells measured after 30 mins by furimazine substrate based BRET assay; type: cell-based, HEK-293T
Histamine H4 receptor [8] = target: T2, Histamine H4 receptor; assay: Inhibition of UR-DEBa242 binding to human recombinant NLuc/GPCR-fused H4R expressed in HEK293T cells measured after 30 mins by furimazine substrate based BRET assay; type: cell-based, HEK-293T
Histamine H4 receptor [9] = target: T2, Histamine H4 receptor
Histamine H3 receptor [10] = target: T1, Histamine H3 receptor; parameters: species or system Sf9; remark: listed apart in the source
Histamine H3 receptor [11] = target: T1, Histamine H3 receptor; assay: Inhibition of UR-DEBa242 binding to human recombinant NLuc/GPCR-fused H3R expressed in HEK293T cells measured after 30 mins by furimazine substrate based BRET assay; type: cell-based, HEK-293T
Histamine H1 receptor = Histamine H1 receptor (Homo sapiens, UniProt P35367); assay: Displacement of [3H]pyrilamine from human recombinant H1R expressed in baculovirus infected Sf9 insect cell membranes co-expressing RGS4
Histamine H3 receptor [12] = target: T1, Histamine H3 receptor; assay: Antagonist activity at human H3R expressed in HEK293T-SP-FLAG-hH3R-CRE-CBR cells assessed as reduction in histamine-induced inhibition of forskolin stimulated luciferase activity preincubated for 15 mins followed by forskolin and histamine addition by luciferase reporter gene assay; type: functional, cell-based
Histamine H3 receptor [13] = target: T1, Histamine H3 receptor; assay: Binding affinity to human recombinant NLuc/GPCR-fused H3R expressed in HEK293T cells measured after 30 mins by furimazine substrate based BRET assay; type: cell-based, HEK-293T
Histamine H3 receptor [14] = target: T1, Histamine H3 receptor; assay: Binding affinity to human recombinant NLuc/GPCR-fused H3R expressed in HEK293T cells assessed as dissociation rate constant measured after 30 mins in presence of thioperamide by furimazine substrate based BRET assay; type: cell-based; conditions: HEK-293T
Histamine H3 receptor [15] = target: T1, Histamine H3 receptor; assay: Binding affinity to human recombinant NLuc/GPCR-fused H3R expressed in HEK293T cells assessed as dissociation half life measured after 30 mins in presence of thioperamide by furimazine substrate based BRET assay; type: cell-based; conditions: HEK-293T
Histamine H3 receptor [16] = target: T1, Histamine H3 receptor; assay: Agonist activity at human H3R expressed in HEK293T-SP-FLAG-hH3R-CRE-CBR cells incubated for 5 hrs by luciferase reporter gene assay; type: functional, cell-based
[17] = Chemical stability of the compound in pH 7.4 phosphate buffered saline at 200 uM incubated for 5 to 6 hrs in white 96-well cellGrade plates by RP-HPLC method; type: physicochemical; conditions: buffer, pH 7.4, 200 µM
[18] = Chemical stability of the compound in pH 7.4 phosphate buffered saline at 200 uM incubated for >= 1 hr in Sigmacote-treated 1.5 mL microtubes by RP-HPLC method; type: physicochemical; conditions: buffer, pH 7.4, 1 h
[19] = Drug uptake in wild-type HEK293T cells at 200 nM measured after 20 mins by confocal microscopic analysis; type: ADME, cell-based; conditions: human, hek-293t, 0.2 µM
[20] = Chemical stability of the compound in pH 7.4 phosphate buffered saline at 200 uM incubated for >= 1 hr in 1.5 mL microtubes by RP-HPLC method; type: physicochemical; conditions: buffer, pH 7.4, 1 h
Histamine H3 receptor [21] = target: T1, Histamine H3 receptor; assay: Binding affinity to human recombinant NLuc/GPCR-fused H3R expressed in HEK293T cells assessed as association rate constant measured after 30 mins by furimazine substrate based BRET assay; type: cell-based; conditions: HEK-293T
Histamine H3 receptor [22] = target: T1, Histamine H3 receptor; assay: Binding affinity to human recombinant NLuc/GPCR-fused H3R expressed in HEK293T cells assessed as dissociation constant measured after 30 mins in presence of thioperamide by furimazine substrate based BRET assay; type: cell-based, HEK-293T
[23] = Chemical stability of the compound in pH 7.4 phosphate buffered saline at 200 uM incubated for 5 to 6 hrs in 96-well Primaria plates by RP-HPLC method; type: physicochemical; conditions: buffer, pH 7.4, 200 µM

T1 sequence (Q9Y5N1 whole entry): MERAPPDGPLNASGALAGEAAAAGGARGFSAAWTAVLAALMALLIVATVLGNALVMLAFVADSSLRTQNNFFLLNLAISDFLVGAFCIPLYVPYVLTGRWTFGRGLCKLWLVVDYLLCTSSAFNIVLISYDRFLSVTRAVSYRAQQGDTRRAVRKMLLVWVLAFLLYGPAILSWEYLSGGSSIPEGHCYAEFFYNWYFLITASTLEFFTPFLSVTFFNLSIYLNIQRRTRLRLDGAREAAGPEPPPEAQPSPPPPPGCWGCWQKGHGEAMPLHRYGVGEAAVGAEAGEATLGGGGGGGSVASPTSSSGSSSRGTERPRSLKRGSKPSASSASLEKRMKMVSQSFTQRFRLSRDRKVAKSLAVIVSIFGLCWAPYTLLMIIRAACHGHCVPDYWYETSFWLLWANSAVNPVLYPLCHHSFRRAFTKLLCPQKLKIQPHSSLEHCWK
Histamine H1 receptor, sequence (P35367 whole entry): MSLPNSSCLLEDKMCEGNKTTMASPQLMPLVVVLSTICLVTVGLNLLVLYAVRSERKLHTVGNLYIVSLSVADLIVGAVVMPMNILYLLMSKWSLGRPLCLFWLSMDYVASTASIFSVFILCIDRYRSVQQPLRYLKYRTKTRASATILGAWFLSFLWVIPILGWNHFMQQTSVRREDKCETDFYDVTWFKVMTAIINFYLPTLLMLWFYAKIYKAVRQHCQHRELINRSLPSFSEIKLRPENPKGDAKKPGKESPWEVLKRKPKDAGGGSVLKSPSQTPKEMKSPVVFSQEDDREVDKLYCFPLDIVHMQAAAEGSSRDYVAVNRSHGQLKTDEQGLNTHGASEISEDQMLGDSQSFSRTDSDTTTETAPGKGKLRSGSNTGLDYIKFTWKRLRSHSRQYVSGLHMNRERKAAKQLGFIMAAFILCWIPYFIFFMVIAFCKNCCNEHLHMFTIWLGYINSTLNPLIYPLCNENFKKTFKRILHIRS

- Ki (Histamine H3 receptor [1]): 0.0117 µM
Structure (SMILES): Cc1cc(/C=C/C=C/c2ccc(N(C)C)cc2)cc(C)[n+]1CCCc1c[nH]cn1

- Ki (Histamine H4 receptor [2]): 0.933 µM
- Ratio Ki (Homo sapiens): 69.2
- Ki (Histamine H3 receptor [1]): 0.0135 µM
Structure (SMILES): Cc1cc(/C=C/C=C/c2ccc(N(C)C)cc2)cc(C)[n+]1CCCNCCc1c[nH]cn1

- Ki (Histamine H3 receptor [3]): 0.0372 µM
- Ki (Histamine H4 receptor [4]): 0.631 µM
- Ratio Ki (Homo sapiens): 17
Structure (SMILES): NCCCCCc1c[nH]cn1

- Ki (Histamine H3 receptor [1]): 1.62 µM
Structure (SMILES): Cc1cc(OCCC[n+]2c(C)cc(/C=C/C=C/c3ccc(N(C)C)cc3)cc2C)ccc1-c1nc2c(C)c(F)ccc2[nH]1

- Ki (Histamine H4 receptor [2]): 28.2 µM
- Ki (Histamine H3 receptor [1]): 20.4 µM
Structure (SMILES): Cc1cc(OCCC[n+]2c(C)cc(/C=C/c3cc4c5c(c3)CCCN5CCC4)cc2C)ccc1-c1nc2c(C)c(F)ccc2[nH]1

- Ki (Histamine H4 receptor [2]): 1.82 µM
- Ki (Histamine H3 receptor [1]): 0.501 µM
Structure (SMILES): Cc1cc(OCCCNC(=O)CCCCCNC(=O)COc2ccc(/C=C/C3=[N+]4C(=Cc5ccc(-c6ccc[nH]6)n5[B-]4(F)F)C=C3)cc2)ccc1-c1nc2c(C)c(F)ccc2[nH]1

- Ki (Histamine H3 receptor [3]): 0.0933 µM
- Ratio Ki (Homo sapiens): 0.34
Structure (SMILES): NCCCc1c[nH]cn1

- Ratio Ki (Homo sapiens): 2.95
Structure (SMILES): NCCCCc1c[nH]cn1

Structure (SMILES): S=C(NC1CCCCC1)N1CCC(c2cnc[nH]2)CC1 [THIOPERAMIDE]
- EC50 (Histamine H4 receptor [5]): 0.0282 µM
- Ki (Histamine H4 receptor [6]): 0.0794 µM
- Ki (Histamine H4 receptor [7]): 0.0661 µM

Structure (SMILES): NC(=NCc1ccc(Cl)cc1)SCCCc1cnc[nH]1 [CLOBENPROPIT]
- Ki (Histamine H4 receptor [6]): 0.158 µM
- Ki (Histamine H4 receptor [8]): 0.0776 µM
- Ki (Histamine H4 receptor [9]): 0.0398 µM
- Ki (Histamine H4 receptor [7]): 0.123 µM

- Ki (Histamine H3 receptor [1]): 0.457 µM
Structure (SMILES): Cc1cc(/C=C/C=C/c2ccc(N(C)C)cc2)cc(C)[n+]1CCCN1CCc2nc[nH]c2C1

- Ki (Histamine H3 receptor [10]): 0.00316 µM
- Ki (Histamine H3 receptor [11]): 0.000537 µM
Structure (SMILES): CC(C)(C)CNc1nccc(N2CCc3nc[nH]c3C2)n1

- Ki (Histamine H4 receptor [2]): 1.95 µM
- Ratio Ki (Homo sapiens): 2.29
- Ki (Histamine H3 receptor [1]): 0.851 µM
Structure (SMILES): Cc1cc(/C=C/C=C/c2ccc(N(C)C)cc2)cc(C)[n+]1CCc1c[nH]cn1

- Ki (Histamine H1 receptor): > 4.79 µM
- pK (Histamine H3 receptor [12]): 8.71
- Ki (Histamine H3 receptor [1]): 0.000912 µM
- Kd (Histamine H3 receptor [13]; read-out: Kd): 0.00097 µM
- Kd (Histamine H3 receptor [13]; read-out: pKd (converted)): 0.00115 µM
Structure (SMILES): Cc1cc(/C=C/C=C/c2ccc(N(C)C)cc2)cc(C)[n+]1CCCCCc1c[nH]cn1

- K (Histamine H3 receptor [14]): 2.79 min⁻¹
- T1/2 (Histamine H3 receptor [15]): 15 s
- Ki (Histamine H1 receptor): > 4.79 µM
- EC50 (Histamine H3 receptor [16]): 0.0017 µM
- Stability [17]: Stable
- Stability [18]: Unstable
- Drug uptake [19]: Active
- Stability [20]: Unstable
- K (Histamine H3 receptor [21]): 1.06e+07 M⁻¹ s⁻¹
- Kd (Histamine H3 receptor [22]; read-out: Kd): 0.00254 to 0.00686 µM
- Kd (Histamine H3 receptor [22]; read-out: pKd (converted)): 0.00468 µM
- Stability [23]: Stable
- Ki (Histamine H3 receptor [1]): 0.00251 µM
- Kd (Histamine H3 receptor [13]; read-out: Kd): 0.00135 to 0.00194 µM
- Kd (Histamine H3 receptor [13]; read-out: pKd (converted)): 0.00166 µM
Structure (SMILES): Cc1cc(/C=C/C=C/c2ccc(N(C)C)cc2)cc(C)[n+]1CCCCc1c[nH]cn1.O=C(O)C(F)(F)F.O=C([O-])C(F)(F)F

- Ki (Histamine H3 receptor [1]): 2.4 µM
Structure (SMILES): Cc1cc(OCCCNC(=O)CCCCCN2\C(=C/C=C/C=C/C3=[N+](CCCCS(=O)(=O)[O-])c4ccccc4C3(C)C)C(C)(C)c3ccccc32)ccc1-c1nc2c(C)c(F)ccc2[nH]1
